Results taken from patent US7915291B2, “Hepatitis C virus inhibitors” (Bristol-Myers Squibb Company, priority 2002, dated 2011).

Tests used:
[1] = molecular target: HCV NS3/4A protease complex, BMS strain (UniProt P27958, C1454S/C1711G, species not given/STRAIN_BMS); experiment: Recombinant HCV NS3/4A protease complex FRET peptide assay (BMS strain); format: biochemical, HCV genotype 1a; conditions: NS3/4A BMS strain; read-out: IC50 range
Excerpt: Recombinant HCV NS3/4A Protease Complex FRET Peptide Assay
The purpose of this in vitro assay was to measure the inhibition of HCV NS3 protease complexes, derived from the BMS, H77C or J416S strains, as described below, by compounds of the present invention.
Serum from an HCV-infected patient was obtained from Dr. T. Wright, San Francisco Hospital. An engineered full-length cDNA (compliment deoxyribonucleic acid) template of the HCV genome (BMS strain) was constructed from DNA fragments obtained by reverse transcription-PCR(RT-PCR) of serum RNA (ribonucleic acid) and using primers selected on the basis of homology between other genotype 1a strains.
The BMS, H77C and J4L6S strains were used for production of recombinant NS3/4A protease complexes. […] Briefly, a three-lysine solubilizing tail was added at the 3′-end of the NS4A coding region. […] Briefly, NS3/4A expression was induced with 0.5 mM Isopropyl β-D-1-thiogalactopyranoside (IPTG) for 22 hr at 20° C. […] The crude protein extract was loaded on a Nickel—Nitrilotriacetic acid (Ni-NTA) column pre-equilibrated with buffer B (25 mM HEPES, pH8.0, 20% glycerol, 500 mM NaCl, 0.5% Triton-X100, 15 mM imidazole, 5 mM βME). The sample was loaded at a flow rate of 1 mL/min. The column was washed with 15 column volumes of buffer C (same as buffer B except with 0.2% Triton-X100). The protein was eluted with 5 column volumes of buffer D (same as buffer C except with 200 mM Imidazole).
NS3/4A protease complex-containing fractions were pooled and loaded on a desalting column Superdex-S200 pre-equilibrated with buffer D (25 mM HEPES, pH7.5, 20% glycerol, 300 mM NaCl, 0.2% Triton-X100, 10 mM βME). Sample was loaded at a flow rate of 1 mL/min. NS3/4A protease complex-containing fractions were pooled and concentrated to approximately 0.5 mg/ml.
The enzyme was stored at −80° C., thawed on ice and diluted prior to use in assay buffer. […] The sequence of this peptide is loosely based on the NS4A/NS4B natural cleavage site except there is an ester linkage rather than an amide bond at the cleavage site. The peptide substrate was incubated with one of the three recombinant NS3/4A complexes, in the absence or presence of a compound of the present invention, and the formation of fluorescent reaction product was followed in real time using a Cytofluor Series 4000.
The reagents were as follow: HEPES and Glycerol (Ultrapure) were obtained from GIBCO-BRL. Dimethyl Sulfoxide (DMSO) was obtained from Sigma. β-Mercaptoethanol was obtained from Bio Rad.
Substrate: 2 μM final concentration (from a 2 mM stock solution in DMSO stored at −20° C.). HCV NS3/4A type 1a (1b), 2-3 nM final concentration (from a 5 μM stock solution in 25 mM HEPES, pH7.5, 20% glycerol, 300 mM NaCl, 0.2% Triton-X100, 10 mM βME).
The assay was performed in a 96-well polystyrene black plate from Falcon. Each well contained 25 μl NS3/4A protease complex in assay buffer, 50 μof a compound of the present invention in 10% DMSO/assay buffer and 25 μl substrate in assay buffer. A control (no compound) was also prepared on the same assay plate. The enzyme complex was mixed with compound or control solution for 1 min before initiating the enzymatic reaction by the addition of substrate. The assay plate was read immediately using the Cytofluor Series 4000 (Perspective Biosystems). The instrument was set to read an […] at 25° C. Reactions were generally followed for approximately 15 minutes.
The percent inhibition was calculated with the following equation: 100−[(δFinh/δFcon)×100] where δF is the change in fluorescence over the linear range of the curve.

[2] = test system: HCV replicon in Huh7 cells; experiment: HCV replicon cell-based assay; design: species or system HCV strain 1B; conditions: Hepatitis C virus, Huh-7; HCV replicon, Huh7 cells; read-out: EC50 range
Excerpt: HCV Replicon Cell-based Assay
This system enabled us to evaluate the effects of our HCV Protease compounds on HCV RNA replication. Briefly, using the HCV strain 1B sequence described in the Lohmann paper (Assession number:AJ238799), an HCV cDNA was generated encoding the 5′ internal ribosome entry site (IRES), the neomycin resistance gene, the EMCV (encephalomyocarditis virus)-IRES and the HCV nonstructural proteins, NS3-NS5B, and 3′ non-translated region (NTR). In vitro transcripts of the cDNA were transfected into the human hepatoma cell line, Huh7. […] Resulting cell lines were characterized for positive and negative strand RNA production and protein production over time.
Huh7 cells, constitutively expressing the HCV replicon, were grown in Dulbecco's Modified Eagle Media (DMEM) containing 10% Fetal calf serum (FCS) and 1 mg/ml G418 (Gibco-BRL). Cells were seeded the night before (1.5×10^4 cells/well) in 96-well tissue-culture sterile plates. Compound and no compound controls were prepared in DMEM containing 4% FCS, 1:100 Penicillin/Streptomysin, 1:100 L-glutamine and 5% DMSO in the dilution plate (0.5% DMSO final concentration in the assay). Compound/DMSO mixes were added to the cells and incubated for 4 days at 37° C. After 4 days, plates were rinsed thoroughly with Phosphate-Buffered Saline (PBS) (3 times 150 μl). The cells were lysed with 25 μl of a lysis assay reagent containing the FRET peptide (RET S1, as described for the in vitro enzyme assay). The lysis assay reagent was made from 5× cell Luciferase cell culture lysis reagent(Promega #E153A) diluted to 1× with distilled water, NaCl added to 150 mM final, the FRET peptide diluted to 10 μM final from a 2 mM stock in 100% DMSO. The plate was then placed into the Cytofluor 4000 instrument which had been set to 340 nm excitation/490 emission, automatic mode for 21 cycles and the plate read in a kinetic mode. EC50 determinations were carried out as described for the IC50 determinations.
Cells were lyzed using the Rneasy kit (Qiagen). […] All primers were designed with ABI Prism 7700 software and obtained from Biosearch Technologies, Novato, Calif. Samples containing known concentrations of HCV RNA transcript were run as standards. Using the following cycling protocol (50° C., 30 min; 95° C., 5 min; 40 cycles of 95° C., 15 sec, 60° C., 1 min), HCV RNA expression was quantitated as described in the Perkin Elmer manual using the ABI Prism 7700 Sequence Detector.

| SMILES | IC50 [1] | EC50 [2] |
| --- | --- | --- |
| C=CC1CC1(NC(=O)[C@@H]1C[C@@H](Oc2cc(CC)nc3c(C)noc23)CN1C(=O)[C@@H](NC(=O)OC(C)(C)C)C(C)(C)C)C(=O)NS(=O)(=O)C1CC1 (stereo partly shown) [Compound 9] | < 100 nM | 100 to 1000 nM |
| C=CC1CC1(NC(=O)[C@@H]1C[C@@H](Oc2cc(-c3ccccc3)nc3c(C)noc23)CN1C(=O)[C@@H](NC(=O)OC(C)(C)C)C(C)(C)C)C(=O)NS(=O)(=O)C1CC1 (stereo partly shown) [Compound 10] | < 100 nM | < 100 nM |
| C=C[C@@H]1C[C@]1(NC(=O)[C@@H]1C[C@@H](Oc2nccc3cc(OC)ccc23)CN1C(=O)[C@@H](NC(=O)OC(C)(C)C)C(C)(C)C)C(=O)NS(=O)(=O)C1CC1 [Compound 11] | < 100 nM | < 100 nM |
| C=C[C@@H]1C[C@]1(NC(=O)[C@@H]1C[C@@H](Oc2nccc3cc(OC)ccc23)CN1C(=O)[C@@H](NC(=O)OC(C)(C)C)C(C)C)C(=O)NS(=O)(=O)C1CC1 [Compound 12] | < 100 nM | < 100 nM |
| C=C[C@@H]1C[C@]1(NC(=O)[C@@H]1C[C@@H](Oc2nccc3cc(OC)ccc23)CN1C(=O)[C@@H](NC(=O)OC(C)(C)C)[C@H](C)CC)C(=O)NS(=O)(=O)C1CC1 [Compound 13] | < 100 nM | < 100 nM |
| CC[C@@H]1C[C@]1(NC(=O)[C@@H]1C[C@@H](Oc2nccc3cc(OC)ccc23)CN1C(=O)[C@@H](NC(=O)OC(C)(C)C)C(C)(C)C)C(=O)NS(=O)(=O)C1CC1 [Compound 14] | < 100 nM | < 100 nM |
| CC[C@@H]1C[C@]1(NC(=O)[C@@H]1C[C@@H](Oc2nccc3cc(OC)ccc23)CN1C(=O)[C@@H](NC(=O)OC(C)(C)C)C(C)(C)C)C(=O)NS(=O)(=O)C(C)C [Compound 15] | 100 to 1000 nM | 1000 to 10000 nM |
| C=C[C@@H]1C[C@]1(NC(=O)[C@@H]1C[C@@H](Oc2nccc3cc(OC)ccc23)CN1C(=O)[C@@H](NC(=O)OC)C(C)(C)C)C(=O)NS(=O)(=O)C1CC1 [Compound 16] | < 100 nM | 100 to 1000 nM |
| C=C[C@@H]1C[C@]1(NC(=O)[C@@H]1C[C@@H](Oc2nccc3cc(OC)ccc23)CN1C(=O)[C@@H](NC(=O)OC(C)C)C(C)(C)C)C(=O)NS(=O)(=O)C1CC1 [Compound 17] | < 100 nM | < 100 nM |
| C=C[C@@H]1C[C@]1(NC(=O)[C@@H]1C[C@@H](Oc2nccc3cc(OC)ccc23)CN1C(=O)[C@@H](NC(=O)OCC(C)(C)C)C(C)(C)C)C(=O)NS(=O)(=O)C1CC1 [Compound 18] | < 100 nM | < 100 nM |
| C=C[C@@H]1C[C@]1(NC(=O)[C@@H]1C[C@@H](Oc2nccc3cc(OC)ccc23)CN1C(=O)[C@@H](NC(=O)O[C@H]1CCOC1)C(C)(C)C)C(=O)NS(=O)(=O)C1CC1 [Compound 19] | < 100 nM | < 100 nM |
| C=C[C@@H]1C[C@]1(NC(=O)[C@@H]1C[C@@H](Oc2nccc3cc(Cl)ccc23)CN1C(=O)[C@@H](NC(=O)OC(C)(C)C)C(C)(C)C)C(=O)NS(=O)(=O)C1CC1 [Compound 20] | < 100 nM | 100 to 1000 nM |
| C=C[C@@H]1C[C@]1(NC(=O)[C@@H]1C[C@@H](Oc2nccc3cc(-n4cccn4)ccc23)CN1C(=O)[C@@H](NC(=O)OC(C)(C)C)C(C)(C)C)C(=O)NS(=O)(=O)C1CC1 [Compound 21] | < 100 nM | < 100 nM |
| C=C[C@@H]1C[C@]1(NC(=O)[C@@H]1C[C@@H](Oc2nccc3cc(Br)ccc23)CN1C(=O)[C@@H](NC(=O)OC(C)(C)C)C(C)(C)C)C(=O)NS(=O)(=O)C1CC1 [Compound 22] | < 100 nM | 100 to 1000 nM |
| C=C[C@@H]1C[C@]1(NC(=O)[C@@H]1C[C@@H](Oc2nccc3ccccc23)CN1C(=O)[C@@H](NC(=O)OC(C)(C)C)C(C)(C)C)C(=O)NS(=O)(=O)C1CC1 [Compound 23] | < 100 nM | < 100 nM |
| C=C[C@@H]1C[C@]1(NC(=O)[C@@H]1C[C@@H](Oc2nc(Cl)cc3ccccc23)CN1C(=O)[C@@H](NC(=O)OC(C)(C)C)C(C)(C)C)C(=O)NS(=O)(=O)C1CC1 [Compound 24] | < 100 nM | < 100 nM |
| C=C[C@@H]1C[C@]1(NC(=O)[C@@H]1C[C@@H](Oc2nc(-c3ccccc3)cc3ccccc23)CN1C(=O)[C@@H](NC(=O)OC(C)(C)C)C(C)(C)C)C(=O)NS(=O)(=O)C1CC1 [Compound 25] | < 100 nM | < 100 nM |
| C=C[C@@H]1C[C@]1(NC(=O)[C@@H]1C[C@@H](Oc2nc(-c3ccc(OC)cc3)cc3ccccc23)CN1C(=O)[C@@H](NC(=O)OC(C)(C)C)C(C)(C)C)C(=O)NS(=O)(=O)C1CC1 [Compound 26] | < 100 nM | < 100 nM |
| C=C[C@@H]1C[C@]1(NC(=O)[C@@H]1C[C@@H](Oc2nc(-c3ccncc3)cc3ccccc23)CN1C(=O)[C@@H](NC(=O)OC(C)(C)C)C(C)(C)C)C(=O)NS(=O)(=O)C1CC1 [Compound 27] | < 100 nM | < 100 nM |
| C=C[C@@H]1C[C@]1(NC(=O)[C@@H]1C[C@@H](Oc2nc(-c3ccc(N(C)C)cc3)cc3ccccc23)CN1C(=O)[C@@H](NC(=O)OC(C)(C)C)C(C)(C)C)C(=O)NS(=O)(=O)C1CC1 [Compound 28] | < 100 nM | < 100 nM |
| C=C[C@@H]1C[C@]1(NC(=O)[C@@H]1C[C@@H](Oc2nc(-c3ccc(C#N)cc3)cc3ccccc23)CN1C(=O)[C@@H](NC(=O)OC(C)(C)C)C(C)(C)C)C(=O)NS(=O)(=O)C1CC1 [Compound 29] | < 100 nM | < 100 nM |
| C=C[C@@H]1C[C@]1(NC(=O)[C@@H]1C[C@@H](Oc2nc(-c3ccoc3)cc3ccccc23)CN1C(=O)[C@@H](NC(=O)OC(C)(C)C)C(C)(C)C)C(=O)NS(=O)(=O)C1CC1 [Compound 30] | < 100 nM | < 100 nM |
| C=C[C@@H]1C[C@]1(NC(=O)[C@@H]1C[C@@H](Oc2nc(-c3cnccn3)cc3ccccc23)CN1C(=O)[C@@H](NC(=O)OC(C)(C)C)C(C)(C)C)C(=O)NS(=O)(=O)C1CC1 [Compound 31] | < 100 nM | < 100 nM |
